Assays:
[1] = biological target: T1, SW1573 HiBiT-KRASG12C (Homo sapiens, UniProt P01116, G12C); experiment: HiBiT degradation assay (G12C), SW1573 HiBiT-KRASG12C cells; format: cell-based; details: 24 hours treatment; for DC50: HiBiT luminescence; for Dmax: maximum degradation observed;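 on DC50: Letter grades: C is 1000 to 3000 nM and D is above 3000 nM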
T1 construct: expressed in transfected cells
Summary of the method: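 SW1573 cells expressing N-terminal HiBiT-KRASG12C (clone E6) treated 24 h at 37 °C with 10 μM to 508 pM compound in 0.5% DMSO, triplicate. HiBiT lytic luminescence normalized to DMSO, 4-parameter fit gives DC50 and Dmax; points with ≥50% alamar blue viability loss excluded.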

[2] = biological target: T2, AsPC-1 HiBiT-KRASG12D (Homo sapiens, UniProt P01116, G12D); experiment: HiBiT degradation assay (G12D), AsPC-1 HiBiT-KRASG12D cells; format: cell-based; details: 24 hours treatment; for Dmax: ASPC1, AsPC-1 HiBiT-KRASG12D cells, maximum degradation observed; for DC50: AsPC-1 HiBiT-KRASG12D cells, HiBiT luminescence
T2 construct: insert the HiBiT tag onto the N-terminus of one or more of the endogenous KRAS alleles; endogenous in cells; host or cells: AsPC-1 (ATCC CRL-1682), CRISPR-Cas9 knock-in clone, one tagged allele
T2 sequence (P01116 1-188 isoform P01116-2 G12D): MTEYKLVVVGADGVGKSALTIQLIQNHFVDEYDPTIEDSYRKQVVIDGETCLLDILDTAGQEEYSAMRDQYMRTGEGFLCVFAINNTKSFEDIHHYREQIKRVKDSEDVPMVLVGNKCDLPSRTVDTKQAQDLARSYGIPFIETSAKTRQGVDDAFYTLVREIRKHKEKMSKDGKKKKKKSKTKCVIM
Summary of the method: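 Steps: treat HiBiT-KRASG12D AsPC-1 cells with compound for 24 hours; add alamar blue to 1× and incubate 4 hours to assess viability; wash with PBS; add HiBiT lytic detection reagent, incubate 45 minutes at room temperature; read luminescence. Viability fluorescence is normalized to DMSO wells.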

T1 sequence (P01116 1-188 isoform P01116-2 G12C): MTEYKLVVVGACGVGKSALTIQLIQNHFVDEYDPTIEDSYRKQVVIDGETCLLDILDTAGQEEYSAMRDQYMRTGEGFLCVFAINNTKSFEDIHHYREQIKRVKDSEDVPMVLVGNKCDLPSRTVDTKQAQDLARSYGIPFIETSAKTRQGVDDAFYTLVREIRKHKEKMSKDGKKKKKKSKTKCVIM

Dmax [1] [%] | SMILES | DC50 [1] [µM] | Dmax [2] [%] | DC50 [2] [µM]
– | CCc1cccc2cc(O)cc(-c3ncc4c(N5CC6CCC(C5)N6)nc(OCCN5CCC6(CC5)CN(c5cc([C@@H](C(=O)N7C[C@H](O)C[C@H]7C(=O)N[C@@H](C)c7ccc(-c8scnc8C)cc7)C(C)C)on5)C6)nc4c3F)c12 [Compound 15, (2S,4R)-1-[(2S)-2-[3-[7-[2-[4-(3,8-diazabicyclo[3.2.1]octan-3-yl)-7-(8-ethyl-3-hydroxy-1-naphthyl)-8-fluoro-pyrido[4,3-d]pyrimidin-2-yl]oxyethyl]-2,7-diazaspiro[3.5]nonan-2-yl]isoxazol-5-yl]-3-methyl-butanoyl]-4-hydroxy-N-[(1S)-1-[4-(4-methylthiazol-5-yl)phenyl]ethyl]pyrrolidine-2-carboxamide] | > 3 | 20 to 60 | 1 to 3
20 to 60 | CCc1cccc2cc(O)cc(-c3ncc4c(N5CC6CCC(C6)C5)nc(OCCN5CCC(COCC(=O)N[C@H](C(=O)N6C[C@H](O)C[C@H]6C(=O)N[C@@H](C)c6ccc(-c7scnc7C)cc6)C(C)(C)C)CC5)nc4c3F)c12 [Compound 19, (2S,4R)-1-[(2S)-2-[[2-[[1-[2-[4-(3-azabicyclo[3.2.1]octan-3-yl)-7-(8-ethyl-3-hydroxy-1-naphthyl)-8-fluoro-pyrido[4,3-d]pyrimidin-2-yl]oxyethyl]-4-piperidyl]methoxy]acetyl]amino]-3,3-dimethyl-butanoyl]-4-hydroxy-N-[(1S)-1-[4-(4-methylthiazol-5-yl)phenyl]ethyl]pyrrolidine-2-carboxamide] | 1 to 3 | – | > 3
– | CCc1cccc2cc(O)cc(-c3ncc4c(N5CC6CCC(C5)N6)nc(OC[C@@]56CCCN5[C@H](COC(=O)N5CCN(c7cc([C@@H](C(=O)N8C[C@H](O)C[C@H]8C(=O)N[C@@H](C)c8ccc(-c9scnc9C)cc8)C(C)C)on7)CC5)CC6)nc4c3F)c12 [Compound 4] | > 3 | 20 to 60 | < 0.6
– | CCc1cccc2cc(O)cc(-c3ncc4c(N5CC6CCC(C5)N6)nc(OCCN5CCC(COCC(=O)N[C@H](C(=O)N6C[C@@H](O)C[C@H]6C(=O)N[C@@H](C)c6ccc(-c7scnc7C)cc6)C(C)(C)C)CC5)nc4c3F)c12 [Compound 10, (2S,4S)-1-[(2S)-2-[[2-[[1-[2-[4-(3,8-diazabicyclo[3.2.1]octan-3-yl)-7-(8-ethyl-3-hydroxy-1-naphthyl)-8-fluoro-pyrido[4,3-d]pyrimidin-2-yl]oxyethyl]-4-piperidyl]methoxy]acetyl]amino]-3,3-dimethyl-butanoyl]-4-hydroxy-N-[(1S)-1-[4-(4-methylthiazol-5-yl)phenyl]ethyl]pyrrolidine-2-carboxamide] | > 3 | – | > 3
20 to 60 | C#Cc1cccc2cc(O)cc(-c3ncc4c(N5CC6CCC(C6)C5)nc(OCCN5CCC(COCC(=O)N[C@H](C(=O)N6C[C@H](O)C[C@H]6C(=O)N[C@@H](C)c6ccc(-c7scnc7C)cc6)C(C)(C)C)CC5)nc4c3F)c12 [Compound 17, (2S,4R)-1-[(2S)-2-[[2-[[1-[2-[4-(3-azabicyclo[3.2.1]octan-3-yl)-7-(8-ethynyl-3-hydroxy-1-naphthyl)-8-fluoro-pyrido[4,3-d]pyrimidin-2-yl]oxyethyl]-4-piperidyl]methoxy]acetyl]amino]-3,3-dimethyl-butanoyl]-4-hydroxy-N-[(1S)-1-[4-(4-methylthiazol-5-yl)phenyl]ethyl]pyrrolidine-2-carboxamide] | 1 to 3 | – | > 3
60 to 80 | CCc1cccc2cc(O)cc(-c3ncc4c(N5CCCCCC5)nc(OC[C@]56CCCN5[C@@H](COC(=O)N5CCN(c7cc([C@H](C(=O)N8C[C@H](O)C[C@H]8C(=O)N[C@@H](C)c8ccc(-c9scnc9C)cc8)C(C)C)on7)CC5)CC6)nc4c3F)c12 [Compound 45, [(3R,7aR)-7a-({[4-(azepan-1-yl)-7-(8-ethyl-3-hydroxynaphthalen-1-yl)-8-fluoropyrido[4,3-d]pyrimidin-2-yl]oxy}methyl)-hexahydro-1H-pyrrolizin-3-yl]methyl 4-{5-[(2R)-1-[(2S,4R)-4-hydroxy-2-{[(1S)-1-[4-(4-methyl-1,3-thiazol-5-yl)phenyl]ethyl]carbamoyl}pyrrolidin-1-yl]-3-methyl-1-oxobutan-2-yl]-1,2-oxazol-3-yl}piperazine-1-carboxylate] | ≤ 0.6 | 80 to 100 | < 0.6
– | CCc1cccc2cccc(-c3ncc4c(N5CC6CCC(C5)N6)nc(OC[C@@]56CCCN5[C@H](COC(=O)N5CCN(c7cc([C@H](C(=O)N8C[C@H](O)C[C@H]8C(=O)N[C@@H](C)c8ccc(-c9scnc9C)cc8)C(C)C)on7)CC5)CC6)nc4c3F)c12 [Compound 35, [(3S,7aS)-7a-{[(4-{3,8-diazabicyclo[3.2.1]octan-3-yl}-7-(8-ethylnaphthalen-1-yl)-8-fluoropyrido[4,3-d]pyrimidin-2-yl)oxy]methyl}-hexahydro-1H-pyrrolizin-3-yl]methyl 4-{5-[(2R)-1-[(2S,4R)-4-hydroxy-2-{[(1S)-1-[4-(4-methyl-1,3-thiazol-5-yl)phenyl]ethyl]carbamoyl}pyrrolidin-1-yl]-3-methyl-1-oxobutan-2-yl]-1,2-oxazol-3-yl}piperazine-1-carboxylate] | > 3 | 80 to 100 | < 0.6
– | C#Cc1cccc2cc(O)cc(-c3ncc4c(N5CC6CCC(C5)N6)nc(OCCN5CCC(COc6cc([C@H](C(=O)N7C[C@H](O)C[C@H]7C(=O)N[C@@H](C)c7ccc(-c8scnc8C)cc7)C(C)C)on6)CC5)nc4c3F)c12 [Compound 48, (2S,4R)-1-[(2R)-2-{3-[(1-{2-[(4-{3,8-diazabicyclo[3.2.1]octan-3-yl}-7-(8-ethynyl-3-hydroxynaphthalen-1-yl)-8-fluoropyrido[4,3-d]pyrimidin-2-yl)oxy]ethyl}piperidin-4-yl)methoxy]-1,2-oxazol-5-yl}-3-methylbutanoyl]-4-hydroxy-N-[(1S)-1-[4-(4-methyl-1,3-thiazol-5-yl)phenyl]ethyl]pyrrolidine-2-carboxamide] | > 3 | 80 to 100 | < 0.6

SMILES | Dmax [1] [%] | DC50 [1] [µM] | Dmax [2] [%] | DC50 [2] [µM]
CCc1cccc2cc(O)cc(-c3ncc4c(N5CC6CCC(C5)N6)nc(OC[C@@]56CCCN5[C@H](COC(=O)N5CCN(c7cc([C@H](C(=O)N8C[C@H](O)C[C@H]8C(=O)N[C@@H](C)c8ccc(-c9scnc9C)cc8)C(C)C)on7)CC5)CC6)nc4c3F)c12 [Compound 5] | 60 to 80 | ≤ 0.6 | 80 to 100 | < 0.6
Cc1ncsc1-c1ccc([C@H](C)NC(=O)[C@@H]2C[C@@H](O)CN2C(=O)[C@@H](c2cc(OCC3CCN(CCOc4nc(N5CC6CCC(C5)N6)c5cnc(-c6cc(O)cc(Cl)c6C(C)C)c(F)c5n4)CC3)no2)C(C)C)cc1 [Compound 41, (2S,4R)-1-[(2R)-2-[3-({1-[2-({7-[3-chloro-5-hydroxy-2-(propan-2-yl)phenyl]-4-{3,8-diazabicyclo[3.2.1]octan-3-yl}-8-fluoropyrido[4,3-d]pyrimidin-2-yl}oxy)ethyl]piperidin-4-yl}methoxy)-1,2-oxazol-5-yl]-3-methylbutanoyl]-4-hydroxy-N-[(1S)-1-[4-(4-methyl-1,3-thiazol-5-yl)phenyl]ethyl]pyrrolidine-2-carboxamide] | 20 to 60 | > 3 | 20 to 60 | < 0.6
